According to patent publication US20040087561A1, “Treatment of sexual dysfunction” (priority 2000, published 2004):

Key:
[1] = system: Sprague Dawley male rats; test: Sexual behaviour of sexually dysfunctional (fluoxetine-treated) male rats; type: in vivo, rat; conditions: fluoxetine 20 mg/kg i.p. 3 days (vs vehicle+vehicle); day 4 Compound (1) 15 mg/kg or yohimbine 2 mg/kg i.p. 1 h before test (vs fluoxetine+vehicle)
Experimental: Sprague Dawley male rats (Charles River, UK) were kept, 4 rats per cage, in a reversed lighting regime (12:12 hours, lights off at 5.00 h), with free access to food and water. The rats were pre-selected by being presented with a receptive female at […], i.e. every third day (haying 2 clear days between presentations) until completing 6-7 trials of baseline determination. The animals showing consistently vigorous behaviour (ejaculatory latencies <300 s) were chosen for further experiments. Animals were treated for 3 consecutive days with either vehicle (water) or fluoxetine (20 mg/kg, i.p., in a 2 ml/kg dosing volume). On the fourth day, the animals treated with water received vehicle (veh+veh) and the animals treated with fluoxetine received one of the three following treatments: Compound (1) (15 mg/kg, dissolved in 50% 2-hydroxypropyl-β-cyclodextrin in saline), vehicle (cyclodextrine), or yohimbine (2 mg/kg dissolved in water). All treatments were administered i.p. in a 1 ml/kg volume, 1 h before tests.
(§1) For all the sexual behaviour tests, the males were placed in an observation arena (50-60 cm diameter), starting 5 hours into the dark cycle and observed under red illumination. Three to 4 minutes after placing the male in the arena, a receptive female (ovariectomised, bearing a 7 mm Silastic implant of oestradiol benzoate) was introduced to the arena and the following parameters noted: Mount Latency: time (in seconds) taken between introduction of female and first mount. A maximum time of 15 minutes (900 seconds) was allowed, and the test terminated if no mounts were recorded within that time (FIG. 16), Ejaculation Latency: time (in seconds) taken from first intromission to ejaculation. A maximum time of 30 minutes (1800 seconds) was given, and the test terminated if ejaculation was not achieved in that time (FIG. 17), Percentage of males achieving ejaculation within 30 minutes was calculated (FIG. 18).
A one-way ANOVA followed by Dunnett's t test was used to compare the fluoxetine+vehicle group and other groups for mount and ejaculatory latencies. Percentage of animals ejaculating was analysed using a Chi-square test followed by Fisher's test. (*: P<0.05, **: P<0.01, ***: P<0.001; n=15-19).

[2] = system: Sprague Dawley male rats; test: Sexual behaviour of normal (sexually vigorous) male rats; type: in vivo, rat; conditions: Compound (1) 15 mg/kg or fluoxetine 20 mg/kg i.p., 1 h before test, vs vehicle
Experimental: The potentially stimulatory effect of Compound (1) on male sexual behaviour has been tested on sexually vigorous rats. Sprague Dawley male rats (Charles River, UK) were kept, 4 rats per cage, in a reversed lighting regime (12:12 hours, lights off at 5.00 h), with free access to food and water. The rats were pre-selected by being presented with a receptive female at 4 days intervals, i.e. every third day (having 2 clear days between presentations) until completing 6-7 days of baseline determination. The animals showing consistently vigorous behaviour (ejaculatory latencies <300 s) were chosen for further experiments (n=24). Animals were randomised into three groups. All animals received all three treatments following a latin-square design. Treatments were administered once a week, with a baseline test in between treatments (4 days intervals between baseline and test day). Treatments were Compound (1) (15 mg/kg, dissolved in 50% 2-hydroxypropyl-β-cyclodextrin in saline), vehicle, or Fluoxetine (20 mg/kg dissolved in 100% DMSO). All treatments were administered i.p. in a 1 ml/kg volume, 1 h before tests.
as §1, with “11), Intromission Latency: time (in seconds) taken between introduction of female and first intromission (FIG. 12), Number of Mounts: to reach ejaculation. When ejaculation was not reached, the number of mounts was not analyzed, Number of Intromissions: to reach ejaculation. When ejaculation was not reached, the number of intromissions was not analyzed (FIG. 13 is number of mounts+intromissions),” for “16),”, “14), and Refractory Period: time (in seconds) taken from ejaculation to the first mount” for “17), Percentage”, “the next series of sexual activity. In those animals reaching” for “males achieving”, “the test” for “within 30 minutes”, “terminated at the end of the refractory period, as indicated by the first mount of the next sexual cycle” for “calculated”, “15).” for “18).”
A one-way ANOVA followed by Dunnett's t test was used to compare treated vs vehicle groups each day of testing, for all the sexual behaviour parameters. (*P<0.05, **P<0.01; n=15-16).

[3] = system: ovariectomised female Sprague Dawley rats; test: Inhibition of female rat sexual proceptivity by NMB and its antagonism; type: in vivo
Experimental: Ovariectomised female rats (Sprague Dawley, obtained from Charles River, UK) were stereotaxically implanted (coordinates 0.89 mm behind Bregma, 1.3 mm lateral and 2.5 mm vertical) with stainless steel cannulae (6 mm long, O.D. 0.75 mm), held in place with dental cement. Animals were housed in groups of three and returned to a reversed lighting system of 12 h light:dark (lights off 5.00-17.00 h). Correct placement of the cannulae was assessed post-mortem. Rats were used for tests two weeks after ovariectomy (one week after cannulation). The experiments started at least 5 h into the dark period. Forty eight hours before tests, the animals were primed with 5 μg oestradiol benzoate (OB) (s.c, in corn oil) and adapted to the apparatus (in the absence of stimuli animals) for 10 min on 2 consecutive days prior testing. The 10 min test was carried out as previously described. The difference in the percentage of time spent investigating male minus female was calculated, out of the total time spent investigating stimuli.
Progesterone (Prog, 0.5 mg/0.1 ml) was dissolved in corn oil and administered subcutaneously (s.c.), 4 h before test, to induce proceptive behaviour. Compound (1) (15 mg/kg, i.p.) was dissolved in 50% 2-hydroxypropyl-β-cyclodextrin in saline and administered 1 h before the i.c.v. administration. Neuromedin B was obtained from Bachem, UK. It was dissolved in isotonic saline and administered i.c.v. over a 30 sec period, with the aid of a pump set to deliver a flow of 10 μl/min, 10 min before tests. The dosing volume was 5 μl/rat. Each rat received a total amount of 100 ng.
From the present study we can conclude that stimulation of BB1 receptors with an agonist results in inhibition of proceptive behaviour. This inhibitory effect may be prevented by the presence of an antagonist. e.g. Compound (1) In FIG. 5 the bars represent percentage of time spent investigating male, minus the percentage of time spent investigating the female stimuli+SEM, (n=8-12 per group). ***P<0.001 vs progesterone (One-way ANOVA followed by Dunnett's test).

[4] = system: ovariectomised female Sprague Dawley rats; test: Plasma sexual hormone levels (radioimmunoassay) in ovariectomised female rats; type: in vivo, rat; conditions: Compound (1) 3-10 mg/kg 1 h, progesterone 0.5 mg/0.1 ml s.c. 4 h before blood collection; vs vehicle
Experimental: Ovariectomised adult female Sprague Dawley rats (180-200 g) were housed in groups of 6 in a reversed lighting system of 12 h light:dark (lights off 7.00-19.00 h). They were used for the experiments at least two weeks after ovariectomy. Forty eight hours before tests, the animals were primed with oestradiol benzoate (5 μg/0.1 ml in corn oil, s.c.). Progesterone (0.5 mg/0.1 ml, in corn oil, s.c.) was administered 4 h before blood collection, as a positive control. Compound (1) (3-10 mg/kg, i.p.) was administered in 50% 2-hydroxypropyl-β-cyclodextrin, 1 h prior to blood collection. Blood was collected from the trunk, after decapitation. It was immediately centrifuged (3500 r.p.m., 4° C., 5 min) and the plasmas frozen until assayed for hormonal content, using commercially available radioimmunoassay kits (^125I-labelled hormones) for oestradiol, progesterone, LH, FSH and prolactin.

[5] = system: ovariectomised female Sprague Dawley rats; test: Female rat sexual proceptivity (time investigating male vs female stimulus); type: in vivo; conditions: day 1; Compound (1) 15 mg/kg i.p. 1 h before; progesterone 0.5 mg/0.1 ml s.c. 4 h before; vs vehicle, P<0.01
Experimental: Ovariectomised adult female Sprague Dawley rats (180-200 g, from Charles River) were housed in groups of 6 in a reversed lighting system of 12 h light:dark (lights off 7.00-19.00 h). Two weeks after ovariectomy they were used for sexual activity tests. The experiments started at least 5 h into the dark period.
Tests were carried out in a circular arena of 90 cm diameter, surrounded by a 30 cm high wall. Two small cages with wire-mesh front (15×15 cm) are fixed into the wall such that the front of the cage is <> with the wall and the 2 cages are opposite each other. They contained two stimuli animals: an intact sexually experienced male and a receptive female (ovariectomised, primed with 5 μg oestradiol benzoate dissolved in corn oil and injected subcutaneously 48 hours before the test and with 0.5 mg of progesterone four hours before the test). Sexually naive test and control animals were used. Forty eight hours before the tests, both the test and control animals were primed with 5 μg oestradiol benzoate. For animals used as positive controls, progesterone (0.5 mg/0.1 ml) was dissolved in corn oil and administered subcutaneously (s.c.), 4 h before the test. Test and control animals were introduced one at a time for 10 minute periods into the arena. During the 10 min test, the time that the test or positive control animal spent investigating each stimulus animal was noted. The arena was thoroughly cleaned between animals. The position of the male/female stimuli boxes was randomised between animals, in order to avoid place preference. The difference in the percentage of time spent investigating the male minus the female stimuli was calculated, out of the total time spent investigating stimuli animals.
Compound (1) was dissolved in 100% β-cyclodextrin and then diluted with saline to a final solution of 50% 2-hydroxypropyl-β-cyclodextrin. It was administered intraperitoneally (i.p.) at doses of 3 and 10 mg/kg, in a dosing volume of 1 ml/kg, 1 h before tests. Progesterone (0.5 mg/0.1 ml) was dissolved in corn oil and administered subcutaneously (s.c.), 4 h before test, as a positive control.
Ovariectomised adult female Sprague Dawley rats (180-200 g) were housed in groups of 5 in a reversed lighting system of 12 h light:dark (lights off 5.00-17.00 h). They were used for the experiments at least two weeks after ovariectomy. Forty eight hours before tests, the animals were primed with oestradiol benzoate (5 μg/0.1 ml in corn oil, s.c.). On day 1, progesterone (0.5 mg/0.1 ml, in corn oil, s.c.) was administered to one of the groups 4 h before tests, as a positive control. Compound (1) (15 mg/kg, i.p.) was administered in 50% 2-hydroxypropyl-β-cyclodextrin, 1 h before tests. The test lasted 10 minutes and was carried out as described before. The difference in the percentage of time spent investigating the male minus the female stimuli was calculated, out of the total time spent investigating stimuli animals. Animals were submitted to a test on day 1 and on day 15. From day 2 to 14 the Compound (1) group received a daily injection of the compound (15 mg/kg, i.p.), while both the vehicle and the progesterone groups received an injection of vehicle. On day 15 the test took place again, as described for day 1.
Ovariectomised female rats (Sprague Dawley, obtained from Charles River, UK) were stereotaxically implanted (coordinates 0.89 mm behind Bregma, 1.3 mm lateral and 2.5 mm vertical) with stainless steel cannulae (6 mm long, O.D. 0.75 mm), held in place with dental cement. Animals were housed in groups of three and returned to a reversed lighting system of 12 h light:dark (lights off 5.00-17.00 h). Correct placement of the cannulae was assessed post-mortem. Rats were used for tests two weeks after ovariectomy (one week after cannulation). The experiments started at least 5 h into the dark period. […]

`CNCCC(Oc1ccc(C(F)(F)F)cc1)c1ccccc1` (stereo not shown) [fluoxetine] was tested, and the Ejaculation latency [1] was “significantly increased”, the Mount latency [1] was “significantly increased” and the “percentage of animals ejaculating (within 30 minutes)” value [1] was “significantly lower”. The Ejaculation latency [2] was “also increased”, the Intromission latency [2] was “significantly increased” and the Mount latency [2] was “significantly increased”. The Refractory period [2] was “also increased” and the “number of mounts and intromissions required to achieve ejaculation” value [2] was “No changes”.

In the case of `CC(=O)[C@H]1CC[C@H]2[C@@H]3CCC4=CC(=O)CC[C@]4(C)[C@H]3CC[C@]12C` [progesterone, reference compound], the “percentage of time spent investigating the male stimulus” value ([3]; progesterone 0.5 mg/0.1 ml s.c. 4 h before test, vs vehicle group) is reported as “increased the percentage of time spent investigating the male stimulus”, the LH plasma levels [4] is reported as “significant decrease” and the progesterone plasma levels [4] is reported as “significant increase”. For the same compound, the “effect on proceptivity, day 1” value [5] was “stimulatory effect on proceptivity”.

neuromedin B [NMB] was tested, and the “proceptivity in progesterone-treated rats” value ([3]; NMB 100 ng i.c.v. 10 min before test) was “significantly reduced proceptivity”.
